# Read-outs that look alike come from different tables or passages of the source.
# Key:
# [1] = molecular target: T1, Recombinant human HDAC8 (Homo sapiens, UniProt Q9BY41); assay: Human HDAC enzyme inhibitor Fluor-de-Lys assay, HDAC8; assay type: biochemical
# T1 construct: purchased Enzo Life Sciences BML-SE145-0100
# T1 sequence (Q9BY41 1-377): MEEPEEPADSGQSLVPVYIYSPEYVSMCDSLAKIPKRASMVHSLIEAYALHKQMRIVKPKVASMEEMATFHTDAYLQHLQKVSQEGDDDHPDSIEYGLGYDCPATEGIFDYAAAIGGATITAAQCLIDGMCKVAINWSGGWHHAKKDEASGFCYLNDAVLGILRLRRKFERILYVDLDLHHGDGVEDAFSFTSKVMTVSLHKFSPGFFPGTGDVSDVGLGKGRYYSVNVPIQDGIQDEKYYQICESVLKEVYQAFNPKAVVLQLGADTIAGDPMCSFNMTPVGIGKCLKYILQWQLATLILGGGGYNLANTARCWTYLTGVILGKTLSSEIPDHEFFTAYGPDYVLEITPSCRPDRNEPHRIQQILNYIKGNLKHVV
# Procedure: (§1) Human HDAC Enzyme Inhibitor Fluor-De-Lys Assay
# (§2) Recombinant human HDAC8 (BML-SE145-0100) and HDAC10 (BML-SE559-0050) enzymes, HDAC substrates BML-KI104 and BML-KI178, and HDAC developer solutions BML-KI105 and BML-KI176 were purchased from Enzo Life Sciences. […] HDAC inhibitor suberoylanilide hydroxamic acid (SAHA) was obtained from Indofine and trichostatin A (TSA) was obtained from Sigma-Aldrich.
# (§3) The histone deacetylase activities of HDAC1, HDAC2, HDAC3, HDAC6, and HDAC8 were measured in modified FLUOR DE LYS assays in 384-well format. In this assay, HDAC enzymes are initially incubated with an ε-acetyl (or -trifluoroacetyl)-L-lysine-containing substrate with a C-terminal amide having aminomethylcoumarin as the amine component. HDACs cleave the ε-acetyl group, rendering the resulting product susceptible to AMC cleavage by trypsin. The released AMC is then detected by its fluorescence.
# (§4) The HDAC3/SMRT assay employed buffer B, consisting of 20 mM HEPES, pH 8.0, 1 mM MgCl2, 50 mM NaCl, 2.7 mM KCl, 0.05% BSA, 0.005% Tween 20, and 10 μM IP4. […] The HDAC8 assay employed buffer D, consisting of 20 mM HEPES, pH 8.0, 1 mM MgCl2, 100 mM NaCl, 20 mM KCl, 0.10% n-octyl-β-D-glucoside (Anatrace) and 0.05% BSA. All steps were performed at room temperature (23° C.). The assay was performed by pre-incubating serial dilutions of test compounds with the target HDAC prior to initiation with substrate. Each compound was titrated in a 10-point dose response, using a 1:3 fold dilution scheme, with 0.15 ul of solution added by ECH0555 to the plate, followed by the addition of 20 μl of the appropriate HDAC isoform diluted in appropriate assay buffer. […] Final conditions used for each assay were: 1. HDAC 1, 0.3 nM total enzyme, 20 μM substrate BML-KI104; 2. […] HDAC 3/SMRT, 0.3 nM total enzyme, 20 μM substrate BML-KI104; 4. […] The reactions were stopped and developed by addition of 30 ul of HDAC developer solution containing a saturating level of HDAC inhibitor as follows: 1.
# [2] = molecular target: T2, HDAC6 (Homo sapiens, UniProt Q9UBN7); assay: Human HDAC enzyme inhibitor Fluor-de-Lys assay, HDAC6; assay type: biochemical
# T2 sequence (Q9UBN7 1-1215): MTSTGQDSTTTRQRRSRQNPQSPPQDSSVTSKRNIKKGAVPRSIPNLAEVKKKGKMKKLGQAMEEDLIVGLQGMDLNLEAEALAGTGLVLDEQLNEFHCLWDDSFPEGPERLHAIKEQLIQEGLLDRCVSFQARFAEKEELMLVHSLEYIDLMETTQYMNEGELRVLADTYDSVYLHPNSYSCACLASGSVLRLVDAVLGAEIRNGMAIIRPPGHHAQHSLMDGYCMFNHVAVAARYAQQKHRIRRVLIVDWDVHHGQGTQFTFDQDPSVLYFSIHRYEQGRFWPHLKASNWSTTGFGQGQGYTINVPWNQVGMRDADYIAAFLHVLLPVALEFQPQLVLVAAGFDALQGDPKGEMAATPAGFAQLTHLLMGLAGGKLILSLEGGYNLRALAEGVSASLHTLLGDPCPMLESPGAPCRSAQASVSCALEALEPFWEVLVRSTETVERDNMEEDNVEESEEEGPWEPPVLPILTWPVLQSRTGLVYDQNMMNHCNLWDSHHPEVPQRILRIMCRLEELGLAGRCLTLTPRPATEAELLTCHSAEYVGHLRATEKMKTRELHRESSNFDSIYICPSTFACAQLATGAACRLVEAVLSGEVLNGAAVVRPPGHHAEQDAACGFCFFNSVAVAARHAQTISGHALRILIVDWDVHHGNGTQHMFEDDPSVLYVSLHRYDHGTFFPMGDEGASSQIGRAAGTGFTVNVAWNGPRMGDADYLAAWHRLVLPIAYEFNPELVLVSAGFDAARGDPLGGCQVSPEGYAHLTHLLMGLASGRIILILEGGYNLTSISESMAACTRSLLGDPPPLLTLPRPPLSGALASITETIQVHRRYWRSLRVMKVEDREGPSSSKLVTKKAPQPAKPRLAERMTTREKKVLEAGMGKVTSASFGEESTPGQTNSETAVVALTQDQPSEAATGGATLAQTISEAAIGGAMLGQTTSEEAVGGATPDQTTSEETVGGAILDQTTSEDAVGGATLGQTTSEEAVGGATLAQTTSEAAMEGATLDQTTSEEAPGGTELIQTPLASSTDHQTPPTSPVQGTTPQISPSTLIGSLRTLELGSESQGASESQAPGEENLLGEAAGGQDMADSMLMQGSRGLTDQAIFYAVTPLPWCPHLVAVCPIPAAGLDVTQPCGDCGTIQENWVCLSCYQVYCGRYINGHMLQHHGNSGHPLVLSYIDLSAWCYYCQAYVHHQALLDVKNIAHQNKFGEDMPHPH
# Procedure: as §1, §2, §3, §4
# [3] = test system: KARN cells (Jurkat 2C4); assay: cells; assay type: cell-based; details: Homo sapiens, Jurkat
# Procedure: KARN cells (Jurkat 2C4) were licensed from the laboratory of Dr. John Karn, Case Western Reserve University, School of Medicine. […] An atmosphere of 5% CO2 and 90% humidity was used for all culture work.
# Day 1: After the 3-4 day growth period, the cells were transferred from the T175 flask to a 50 ml conical tube and gently pelleted at 1000 rpm for 5 minutes. […] These flasks were returned to the incubator.
# Day 2: Cell Preparation: The next day, the cells were transferred from each T175 flask to an individual 50 ml conical tube and gently pelleted at 1000 rpm for 5 minutes. The cells were gently resuspended in assay media (30 ml) and pelleted again. […] The cells were counted using the ViCell (Beckman Coulter) and diluted as necessary. […] The plates were covered and returned to the incubator prior to compound addition.
# The reference compounds, DMSO and SAHA were then added to the compound plate. […] The final high concentration for SAHA and the test compounds in the assays was 40 μM. The final DMSO concentration in all wells was 0.4%. The minimal induction reference compound used was DMSO and the maximal induction reference compound used was SAHA (2 μM final concentration in the assay).
# Day 3: The luciferase detection reagent was prepared by transferring the contents of one bottle of Steady-Glo buffer to one bottle of Steady-Glo aubstrate (Steady-Glo Luciferase Assay System, Promega, catalog number E2520), followed by gently mixing until the substrate was thoroughly dissolved and the solution was equilibrated to room temperature. […] The Steady-Glo Reagent was added to the plates (30 μl/well), which were then covered with a black lid and incubated for 10 minutes at room temperature. The plates were then read for luminescence on an Envision (Perkin Elmer) using the ultrasensitive mode (US LUM), […] and 384-well aperture. Luminescence counts in the DMSO reference wells were considered as 0% induction, while those in the 2 μM SAHA reference wells were considered as 100% induction. Dose response curves were plotted as test compound concentration (X-axis) vs. percent activation (Y-axis) using a 4-parameter fit based on the Levenberg-Marquardt algorithm.
# [4] = read-out: Karn EC50 (nM) 0.1% NHS, 0.1% normal human serum
# [5] = read-out: Karn EC50 (nM) 5% NHS, 5% normal human serum
# [6] = recombinant human HDAC8, Fluor-de-Lys assay
# [7] = read-out: Karn EC50 (nM) 0.1% NHS, 0.1% normal human serum, luciferase induction, 100% = 2 μM SAHA
# [8] = read-out: Karn EC50 (nM) 5% NHS, 5% normal human serum, luciferase induction, 100% = 2 μM SAHA
Structure (SMILES),IC50 [1],IC50 [2],"EC50 [3, 4]","EC50 [3, 5]","IC50 [1, 6]","IC50 ([2]; HDAC6, Fluor-de-Lys assay)","EC50 [3, 7]","EC50 [3, 8]"
"CCC(=O)CCCCC[C@H](NC(=O)[C@H]1CC12CCN(C)CC2)c1ncc(-c2cc3ccc(-c4ncco4)cc3nc2OC)[nH]1 [Compound 175, (1S)—N-[(1S)-1-{5-[2-methoxy-7-(1,3-oxazol-2-yl)quinolin-3-yl]-1H-imidazol-2-yl}-7-oxononyl]-6-methyl-6-azaspiro[2.5]octane-1-carboxamide]",> 150 nM,> 150 nM,48 nM,84 nM,,,,
"CCC(=O)CCCCC[C@H](NC(=O)[C@H]1CC12CCN(C)CC2)c1ncc(-c2cc3ccc(-n4cccn4)cc3nc2OC)[nH]1 [Compound 176, (1S)—N-[(1S)-1-{5-[2-methoxy-7-(1H-pyrazol-1-yl)quinolin-3-yl]-1H-imidazol-2-yl}-7-oxononyl]-6-methyl-6-azaspiro[2.5]octane-1-carboxamide]",> 4500 nM,> 1500 nM,45 nM,76 nM,,,,
CCC(=O)CCCCC[C@H](NC(=O)[C@H]1CC12CCN(C)CC2)c1ncc(-c2cc3ccc(Cl)cc3nc2OC)[nH]1 [Compound 177],2560 nM,341 nM,22 nM,41 nM,,,,
CCC(=O)CCCCC[C@H](NC(=O)[C@H]1CC12CCN(CC)CC2)c1ncc(-c2cc3cccnc3cc2OC)[nH]1 [Compound 181],5250 nM,144 nM,52 nM,63 nM,,,,
CCC(=O)CCCCC[C@H](NC(=O)[C@H]1CC12CCN(CC)CC2)c1ncc(-c2ccc(OC)cc2OC)[nH]1 [Compound 183],10400 nM,898 nM,58 nM,93 nM,,,,
CCC(=O)CCCCC[C@H](NC(=O)[C@H]1CC12CCN(CC)CC2)c1ncc(-c2cc3nn(C)cc3cc2OC)[nH]1 [Compound 190],3110 nM,562 nM,967 nM,1450 nM,,,,
CCC(=O)CCCCC[C@H](NC(=O)[C@H]1CC12CCN(CC)CC2)c1ncc(-c2ccc(F)cc2OC)[nH]1 [Compound 197],7540 nM,3380 nM,369 nM,538 nM,,,,
CCN1CCC2(CC1)C[C@@H]2C(=O)N[C@@H](CCCCCC(=O)CC1CC1)c1ncc(-c2cccnc2OC)[nH]1 [Compound 202],8780 nM,34900 nM,210 nM,501 nM,,,,
CCC(=O)CCCCC[C@H](NC(=O)[C@H]1CC12CCN(CC)CC2)c1ncc(-c2ccc(C)cc2OC)[nH]1 [Compound 208],1450 nM,756 nM,53 nM,63 nM,,,,
CCC(=O)CCCCC[C@H](NC(=O)[C@H]1CC12CCN(CC)CC2)c1ncc(-c2cc3ccn(CC)c(=O)c3cc2OC)[nH]1 [Compound 245],,,,,9010 nM,694 nM,18 nM,22 nM
CCC(=O)CCCCC[C@H](NC(=O)C1CCC2(CC1)CN(CC)C2)c1ncc(-c2cc3ccccc3nc2OC)[nH]1 [Compound 271],,,,,1750 nM,464 nM,154 nM,634 nM
CCC(=O)CCCCC[C@H](NC(=O)C1CC2(CCN(C)CC2)C1)c1ncc(-c2cc3ccccc3nc2OC)[nH]1 [Compound 277],,,,,1920 nM,405 nM,140 nM,708 nM
CCC(=O)CCCCC[C@H](NC(=O)C1CC2(CCN(CC)CC2)C1)c1ncc(-c2cc3ccccc3nc2OC)[nH]1 [Compound 278],,,,,980 nM,479 nM,166 nM,1000 nM
CCC(=O)CCCCC[C@H](NC(=O)C1CC2(C1)CN(CC)C2)c1ncc(-c2cc3ccccc3nc2OC)[nH]1 [Compound 279],,,,,5120 nM,362 nM,160 nM,860 nM
CCC(=O)CCCCC[C@H](NC(=O)[C@@H]1CC12CCCN(C)C2)c1ncc(-c2cc3ccccc3nc2OC)[nH]1 (stereo partly shown) [Compound 285],,,,,9190 nM,260 nM,257 nM,1010 nM
CCC(=O)CCCCC[C@H](NC(=O)[C@H]1CC12CCCN(C)C2)c1ncc(-c2cc3ccccc3nc2OC)[nH]1 (stereo partly shown) [Compound 286],,,,,3870 nM,342 nM,116 nM,406 nM
